Laboratory results taken from patent US6444648B1, “Leishmaniasis remedy containing glucopyranose derivative as the active ingredient” (University of the Ryukyu, priority 1997, dated 2002).

System: L. amazonesis
Assay: Effects upon leishmaniasis-infected mice (shrinkage of skin foci)
Type: in vivo, BALB/c mice
Details: 30 mg/kg twice a week for 8 weeks; for Average focus shrinkage degree: before administration = 100
Source text: L. amazonesis was inoculated to tail root portions of BALB/c mice to prepare L. amazonesis-infected mice, and the mice were used 6 week after the infection. These mice were divided into four groups as mentioned below, infected foci (tail root portions) were photographed with lapse of time, and the effects upon them were examined in terms of [by means of] shrinkage degrees of the skin foci. The shrinkage degree of the skin focus was found by measuring a major axis of ulcer or node. The magnitude before administration was taken as 100 and the magnitude 8 weeks after administration was calculated according to the following calculation formula. Group A (Control group) Only a solvent (55% ethanol-4.5% glucose liquid) was injected topically into a focus twice a week for 8 weeks. Group B (Control group) Only a solvent (55% ethanol-4.5% glucose liquid) was injected intraperitoneally twice a week for 8 weeks. Group C (Topically injected group) A solution in which the sodium salt of the compound in the present invention represented by the formula (1) was dissolved in the solvent was injected topically into a focus twice a week for 8weeks at a rate of 30 mg/kg. Group D (intraperitoneally injected group) A solution in which the sodium salt of the compound in the present invention represented by the formula (1) was dissolved in the solvent was injected intraperitoneally twice a week for 8 weeks at a rate of 30 mg/kg. [formula]

2-deoxy-2-[(3S)-(9-phenylnonanoyloxy)tetradecanoyl]amino-3-O-(9-phenylnonanoyl)-4-O-sulfo-α-D-glucopyranose
Average focus shrinkage degree (Group C: injected topically into focus, magnitude (major axis of ulcer or node) 8 weeks after administration, n = 7, solvent control Group A 220.5): 138.9 (n = 7)
Skin focus completely cured (number of mice) (Group C: topical injection, n = 7): completely cured with respect to three mice
Average focus shrinkage degree (Group D: injected intraperitoneally, magnitude 8 weeks after administration, n = 6, solvent control Group B 289.3): 178.5 (n = 6)

CCCCCCCCCCC[C@@H](CC(=O)N[C@@H]1[C@@H](OC(=O)CCCCCCCCc2ccccc2)[C@H](OS(=O)(=O)[O-])[C@@H](CO)O[C@@H]1O)OC(=O)CCCCCCCCc1ccccc1.[Na+] [the compound in the present invention, 2-deoxy-2-[(3S)-(9-phenylnonanoyloxy)tetradecanoyl]-amino-3-O-(9-phenylnonanoyl)-4-O-sulfo-α-D-glucopyranose]
Effect on focal infection of leishmaniasis-infected mice (in words) (conclusion from Table 1, topical or intraperitoneal): effectively shrunk the focal infection
